What all share (format): cell-based
The test system of one test is S. aureus MP-12. Nature of the test: Broth dilution MIC determination (CLSI), S. aureus MP-12. As to conditions: Staphylococcus aureus, MP12; strain MP-12, broth dilution.
Another test relates to E. coli MP-4. As to the kind of experiment: Broth dilution MIC determination (CLSI), E. coli MP-4. As to conditions: Escherichia coli, MP4; strain MP-4, broth dilution; read-out: MIC E. coli MP-4.
For another test, the system named is K. pneumoniae MP-546. Nature of the test: Broth dilution MIC determination (CLSI), K. pneumoniae MP-546. As to conditions: Klebsiella pneumoniae, MP546; strain MP-546, broth dilution.
In the next test the test system is P. aeruginosa MP-3. Nature of the test: Broth dilution MIC determination (CLSI), P. aeruginosa MP-3. As to conditions: Pseudomonas aeruginosa, MP3; strain MP-3, broth dilution.
A further test relates to A. baumannii MP-15. As to the kind of experiment: Broth dilution MIC determination (CLSI), A. baumannii MP-15. As to conditions: Acinetobacter baumannii, MP15; strain MP-15, broth dilution; read-out: MIC A. baumanii MP-15.

Structures are written as SMILES. Values after ≈ are worked out from the molar mass of the structure shown. Where only a bound is given, the exact number is not on record here.

On to `CO[C@]1(C)C[C@@H](C)CN(C)[C@@H](C2CN(C)C2)COC(=O)C(C)(C)C(=O)[C@H](C)[C@H]1O[C@@H]1O[C@H](C)C[C@H](N(C)C)[C@H]1O` [Compound 99, (3S,6R,8R,9R,10R)-9-(((2S,3R,4S,6R)-4-(dimethylamino)-3-hydroxy-6-methyltetrahydro-2H-pyran-2-yl)oxy)-8-methoxy-4,6,8,10,12,12-hexamethyl-3-(1-methylazetidin-3-yl)-1-oxa-4-azacyclotridecane-11,13-dione], for which the MIC was over 32 µg/mL against S. aureus MP-12; under 4 µg/mL in the test on E. coli MP-4; under 4 µg/mL with K. pneumoniae MP-546; over 32 µg/mL in the test with P. aeruginosa MP-3; over 32 µg/mL with A. baumannii MP-15.
As for `CO[C@]1(C)C[C@@H](C)CN(CC(C)C)[C@H](C2CN(C(=O)CN(C)C)C2)COC(=O)C(C)(C)C(=O)[C@H](C)[C@H]1O[C@@H]1O[C@H](C)C[C@H](N(C)C)[C@H]1O` [Compound 27, (3R,6R,8R,9R,10R)-9-(((2S,3R,4S,6R)-4-(dimethylamino)-3-hydroxy-6-methyltetrahydro-2H-pyran-2-yl)oxy)-3-(1-(dimethylglycyl)azetidin-3-yl)-4-isobutyl-8-methoxy-6,8,10,12,12-pentamethyl-1-oxa-4-azacyclotridecane-11,13-dione], the MIC in the test with S. aureus MP-12, in the test on E. coli MP-4, against K. pneumoniae MP-546, in the test on P. aeruginosa MP-3 and with A. baumannii MP-15 was over 32 µg/mL in each case.
On to `CO[C@]1(C)C[C@@H](C)CN(C)[C@H](C2CN(C(=O)CN(C)C)C2)COC(=O)C(C)(C)C(=O)[C@H](C)[C@H]1O[C@@H]1O[C@H](C)C[C@H](N(C)C)[C@H]1O` [Compound 28, (3R,6R,8R,9R,10R)-9-(((2S,3R,4S,6R)-4-(dimethylamino)-3-hydroxy-6-methyltetrahydro-2H-pyran-2-yl)oxy)-3-(1-(dimethylglycyl)azetidin-3-yl)-8-methoxy-4,6,8,10,12,12-hexamethyl-1-oxa-4-azacyclotridecane-11,13-dione], for which the MIC was 4 to 32 µg/mL (≈ 6.24 to 49.9 µM) against S. aureus MP-12; under 4 µg/mL in the test on E. coli MP-4; under 4 µg/mL with K. pneumoniae MP-546; over 32 µg/mL in the test on P. aeruginosa MP-3; over 32 µg/mL in the test with A. baumannii MP-15.
Turning to `CO[C@]1(C)C[C@@H](C)CN(C)[C@H]([C@@H]2CCCN(C(C)C)C2)COC(=O)C(C)(C)C(=O)[C@H](C)[C@H]1O[C@@H]1O[C@H](C)C[C@H](N(C)C)[C@H]1O` [Compound 90, (3R,6R,8R,9R,10R)-9-(((2S,3R,4S,6R)-4-(dimethylamino)-3-hydroxy-6-methyltetrahydro-2H-pyran-2-yl)oxy)-3-((R)-1-isopropylpiperidin-3-yl)-8-methoxy-4,6,8,10,12,12-hexamethyl-1-oxa-4-azacyclotridecane-11,13-dione], the MIC against S. aureus MP-12 was over 32 µg/mL; in the test on E. coli MP-4, 4 to 32 µg/mL (≈ 6.39 to 51.1 µM); against K. pneumoniae MP-546, 4 to 32 µg/mL (≈ 6.39 to 51.1 µM); against P. aeruginosa MP-3 it was over 32 µg/mL; with A. baumannii MP-15, over 32 µg/mL.
For `CCN1CCC([C@H]2COC(=O)C(C)(C)C(=O)[C@H](C)[C@@H](O[C@@H]3O[C@H](C)C[C@H](N(C)C)[C@H]3O)[C@](C)(OC)C[C@@H](C)CN2C)CC1` [Compound 175, (3S,6R,8R,9R,10R)-9-(((2S,3R,4S,6R)-4-(dimethylamino)-3-hydroxy-6-methyltetrahydro-2H-pyran-2-yl)oxy)-3-(1-ethylpiperidin-4-yl)-8-methoxy-4,6,8,10,12,12-hexamethyl-1-oxa-4-azacyclotridecane-11,13-dione], the MIC against S. aureus MP-12 is 4 to 32 µg/mL (≈ 6.54 to 52.3 µM); with E. coli MP-4, under 4 µg/mL; in the test on K. pneumoniae MP-546 it was under 4 µg/mL; in the test on P. aeruginosa MP-3 it was over 32 µg/mL; in the test with A. baumannii MP-15 it was over 32 µg/mL.
As to `CO[C@]1(C)C[C@@H](C)CN(C)[C@H](C2CCN(C(=O)CNCC(C)C)CC2)COC(=O)C(C)(C)C(=O)[C@H](C)[C@H]1O[C@@H]1O[C@H](C)C[C@H](N(C)C)[C@H]1O` [Compound 66, (3R,6R,8R,9R,10R)-9-(((2S,3R,4S,6R)-4-(dimethylamino)-3-hydroxy-6-methyltetrahydro-2H-pyran-2-yl)oxy)-3-(1-(isobutylglycyl)piperidin-4-yl)-8-methoxy-4,6,8,10,12,12-hexamethyl-1-oxa-4-azacyclotridecane-11,13-dione], the minimal inhibitory concentration (MIC) was over 32 µg/mL against S. aureus MP-12; under 4 µg/mL in the test on E. coli MP-4; 4 to 32 µg/mL (≈ 5.74 to 45.9 µM) against K. pneumoniae MP-546; over 32 µg/mL in the test with P. aeruginosa MP-3; over 32 µg/mL in the test with A. baumannii MP-15.
In the case of `CO[C@]1(C)C[C@@H](C)CN(C)[C@H](C2CC3CCC(C2)N3C)COC(=O)C(C)(C)C(=O)[C@H](C)[C@H]1O[C@@H]1O[C@H](C)C[C@H](N(C)C)[C@H]1O` (stereo partly drawn) [Compound 129, (3R,6R,8R,9R,10R)-9-(((2S,3R,4S,6R)-4-(dimethylamino)-3-hydroxy-6-methyltetrahydro-2H-pyran-2-yl)oxy)-8-methoxy-4,6,8,10,12,12-hexamethyl-3-(8-methyl-8-azabicyclo[3.2.1]octan-3-yl)-1-oxa-4-azacyclotridecane-11,13-dione], the MIC against S. aureus MP-12 is over 32 µg/mL; in the test with E. coli MP-4 it was under 4 µg/mL; in the test on K. pneumoniae MP-546, 4 to 32 µg/mL (≈ 6.41 to 51.3 µM); against P. aeruginosa MP-3 it was over 32 µg/mL; with A. baumannii MP-15, over 32 µg/mL.
`CO[C@]1(C)C[C@@H](C)CN(C)[C@H]([C@@H]2CCN(C)C2)COC(=O)C(C)(C)C(=O)[C@H](C)[C@H]1O[C@@H]1O[C@H](C)C[C@H](N(C)C)[C@H]1O` [Compound 182, (3R,6R,8R,9R,10R)-9-(((2S,3R,4S,6R)-4-(dimethylamino)-3-hydroxy-6-methyltetrahydro-2H-pyran-2-yl)oxy)-8-methoxy-4,6,8,10,12,12-hexamethyl-3-((R)-1-methylpyrrolidin-3-yl)-1-oxa-4-azacyclotridecane-11,13-dione]: the MIC is over 32 µg/mL against S. aureus MP-12; under 4 µg/mL in the test with E. coli MP-4; under 4 µg/mL in the test on K. pneumoniae MP-546; over 32 µg/mL in the test on P. aeruginosa MP-3; over 32 µg/mL in the test with A. baumannii MP-15.
Consider `CO[C@]1(C)C[C@@H](C)CN(C)[C@@H]([C@H]2CCNC2)COC(=O)C(C)(C)C(=O)[C@H](C)[C@H]1O[C@@H]1O[C@H](C)C[C@H](N(C)C)[C@H]1O` [Compound 40, (3S,6R,8R,9R,10R)-9-(((2S,3R,4S,6R)-4-(Dimethylamino)-3-hydroxy-6-methyltetrahydro-2H-pyran-2-yl)oxy)-8-methoxy-4,6,8,10,12,12-hexamethyl-3-((S)-pyrrolidin-3-yl)-1-oxa-4-azacyclotridecane-11,13-dione], for which the MIC was 4 to 32 µg/mL (≈ 7.02 to 56.2 µM) against S. aureus MP-12; under 4 µg/mL in the test on E. coli MP-4; under 4 µg/mL with K. pneumoniae MP-546; over 32 µg/mL in the test with P. aeruginosa MP-3; over 32 µg/mL with A. baumannii MP-15.
In the case of `CO[C@]1(C)C[C@@H](C)CN(C)[C@@H](C2CCN(CC(C)C)CC2)COC(=O)C(C)(C)C(=O)[C@H](C)[C@H]1O[C@@H]1O[C@H](C)C[C@H](N(C)C)[C@H]1O` [Compound 12, (3S,6R,8R,9R,10R)-9-(((2S,3R,4S,6R)-4-(dimethylamino)-3-hydroxy-6-methyltetrahydro-2H-pyran-2-yl)oxy)-3-(1-isobutylpiperidin-4-yl)-8-methoxy-4,6,8,10,12,12-hexamethyl-1-oxa-4-azacyclotridecane-11,13-dione], the MIC in the test on S. aureus MP-12 is 4 to 32 µg/mL (≈ 6.25 to 50 µM); in the test with E. coli MP-4, under 4 µg/mL; in the test on K. pneumoniae MP-546 it was under 4 µg/mL; against P. aeruginosa MP-3 it was over 32 µg/mL; with A. baumannii MP-15, over 32 µg/mL.
Turning to `CCCN1CC([C@H]2COC(=O)C(C)(C)C(=O)[C@H](C)[C@@H](O[C@@H]3O[C@H](C)C[C@H](N(C)C)[C@H]3O)[C@](C)(OC)C[C@@H](C)CN2C)C1` [Compound 29, (3S,6R,8R,9R,10R)-9-(((2S,3R,4S,6R)-4-(dimethylamino)-3-hydroxy-6-methyltetrahydro-2H-pyran-2-yl)oxy)-8-methoxy-4,6,8,10,12,12-hexamethyl-3-(1-propylazetidin-3-yl)-1-oxa-4-azacyclotridecane-11,13-dione], the MIC against S. aureus MP-12 was over 32 µg/mL; with E. coli MP-4, under 4 µg/mL; against K. pneumoniae MP-546 it was 4 to 32 µg/mL (≈ 6.69 to 53.5 µM); against P. aeruginosa MP-3, over 32 µg/mL; in the test with A. baumannii MP-15, over 32 µg/mL.
As for `CO[C@]1(C)C[C@@H](C)CN(C)[C@H](C2CN(Cc3ccccc3)C2)COC(=O)C(C)(C)C(=O)[C@H](C)[C@H]1O[C@@H]1O[C@H](C)C[C@H](N(C)C)[C@H]1O` [Compound 101, (3R,6R,8R,9R,10R)-3-(1-benzylazetidin-3-yl)-9-(((2S,3R,4S,6R)-4-(dimethylamino)-3-hydroxy-6-methyltetrahydro-2H-pyran-2-yl)oxy)-8-methoxy-4,6,8,10,12,12-hexamethyl-1-oxa-4-azacyclotridecane-11,13-dione], the MIC was 4 to 32 µg/mL (≈ 6.19 to 49.5 µM) with S. aureus MP-12; under 4 µg/mL in the test with E. coli MP-4; under 4 µg/mL against K. pneumoniae MP-546; over 32 µg/mL against P. aeruginosa MP-3; 4 to 32 µg/mL (≈ 6.19 to 49.5 µM) in the test on A. baumannii MP-15.
Consider `CO[C@]1(C)C[C@@H](C)CN(C)[C@H]([C@H]2CCCN(CC(C)C)C2)COC(=O)C(C)(C)C(=O)[C@H](C)[C@H]1O[C@@H]1O[C@H](C)C[C@H](N(C)C)[C@H]1O` [Compound 39, (3R,6R,8R,9R,10R)-9-(((2S,3R,4S,6R)-4-(Dimethylamino)-3-hydroxy-6-methyltetrahydro-2H-pyran-2-yl)oxy)-3-((S)-1-isobutylpiperidin-3-yl)-8-methoxy-4,6,8,10,12,12-hexamethyl-1-oxa-4-azacyclotridecane-11,13-dione], for which the MIC is 4 to 32 µg/mL (≈ 6.25 to 50 µM) in the test with S. aureus MP-12; 4 to 32 µg/mL (≈ 6.25 to 50 µM) with E. coli MP-4; 4 to 32 µg/mL (≈ 6.25 to 50 µM) against K. pneumoniae MP-546; over 32 µg/mL against P. aeruginosa MP-3; over 32 µg/mL with A. baumannii MP-15.

The values are drawn from patent US20220177508A1, “C10-Cyclic Substituted 13-Membered Macrolides and Uses Thereof” (Zikani Therapeutics, Inc., priority 2018, published 2022).
